{"source": "patent US20190029257A1", "about": "“APPLICATION FOR HERBICIDE-TOLERANT PROTEIN” (BEIJING DABEINONG TECHNOLOGY GROUP CO., LTD., priority 2016, published 2019)", "type_in_all_cases": "in vivo", "key": {"[1]": {"tested_on": "At cytoplasmic ALT-1-01 T1 plants", "assay": "Herbicide tolerance of Arabidopsis thaliana T1 plants (spray, resistance classes counted)", "conditions": "18 g ai/ha (1x Hal.); number of plants 14 days after spraying; Total 31", "from_the_text": "(§1) T1 transformants were initially selected from the background of untransformed seeds using a glufosinate selection scheme. About 40000 T1 seeds were screened, and 380 T1 positive transformants (PAT gene) were identified with a transformation efficiency of about 0.95%. The plants that were transformed with the recombinant expression vector DBN100632 were Arabidopsis thaliana plants having an ALT-1-01 nucleotide sequence located in the cytoplasm introduced (At cytoplasmic ALT-1-01), and the plants that were transformed with the recombinant expression vector DBN100631 were Arabidopsis thaliana plants having an ALT-1-01 nucleotide sequence located in the chloroplast introduced (At chloroplastic ALT-1-01); the plants that were transformed with the recombinant expression vector DBN100634 were Arabidopsis thaliana plants having an ALT-2-01 nucleotide sequence located in the cytoplasm introduced (At cytoplasmic ALT-2-01), and the plants that were transformed with the recombinant expression vector DBN100633 were Arabidopsis thaliana plants having an ALT-2-01 nucleotide sequence located in the chloroplast introduced (At chloroplastic ALT-2-01); and the plants that were transformed with the recombinant expression vector DBN100636 were Arabidopsis thaliana plants having an ALT-3-01 nucleotide sequence located in the cytoplasm introduced (At cytoplasmic ALT-3-01), and the plants that were transformed with the recombinant expression vector DBN100635 were Arabidopsis thaliana plants having an ALT-3-01 nucleotide sequence located in the chloroplast introduced (At chloroplastic ALT-3-01). The herbicide tolerance effects of At cytoplasmic ALT-1-01 T1 plants, At chloroplastic ALT-1-01 T1 plants, At cytoplasmic ALT-2-01 T1 plants, At chloroplastic ALT-2-01 T1 plants, At cytoplasmic ALT-3-01 T1 plants, At chloroplastic ALT-3-01 T1 plants and wild-type Arabidopsis thaliana plants on halosulfuron-methyl were detected (14 days after sowing), respectively.\n(§2) […] Plants were counted for the resistance situations 14 days after spraying: those having a consistent growth status with the blank solvent (water) group after 14 days were classified as highly resistant plants, those having a bolting height less than ½ of that of the blank solvent (water) group after 14 days were classified as moderately resistant plants, those still not capable of bolting after 14 days were classified as poorly resistant plants, and those dead after 14 days were classified as non-resistant plants. Since each Arabidopsis thaliana T1 plant was an independent transformation event, a significant difference in individual T1 responses could be expected at a given dose.\nas §2, with “situation” for “situations”"}, "[2]": {"tested_on": "At cytoplasmic ALT-2-01 T1 plants", "assay": "Herbicide tolerance of Arabidopsis thaliana T1 plants (spray, resistance classes counted)", "conditions": "18 g ai/ha (1x Hal.); number of plants 14 days after spraying; Total 28", "from_the_text": "as §1, §2\nas §2, with “situation” for “situations”"}, "[3]": {"tested_on": "At chloroplastic ALT-2-01 T1 plants", "assay": "Herbicide tolerance of Arabidopsis thaliana T1 plants (spray, resistance classes counted)", "conditions": "18 g ai/ha (1x Hal.); number of plants 14 days after spraying; Total 31", "from_the_text": "as §1, §2\nas §2, with “situation” for “situations”"}, "[4]": {"tested_on": "At cytoplasmic ALT-3-01 T1 plants", "assay": "Herbicide tolerance of Arabidopsis thaliana T1 plants (spray, resistance classes counted)", "conditions": "18 g ai/ha (1x Hal.); number of plants 14 days after spraying; Total 28", "from_the_text": "as §1, §2\nas §2, with “situation” for “situations”"}, "[5]": {"tested_on": "At chloroplastic ALT-1-01 T1 plants", "assay": "Herbicide tolerance of Arabidopsis thaliana T1 plants (spray, resistance classes counted)", "conditions": "18 g ai/ha (1x Hal.); number of plants 14 days after spraying; Total 31", "from_the_text": "as §1, §2\nas §2, with “situation” for “situations”"}, "[6]": {"tested_on": "Gm cytoplasmic ALT-1-01 soybean plants", "assay": "Halosulfuron-methyl tolerance of soybean plants (damage degree)", "conditions": "34 g ai/ha (1x Hal.); for Average damage % 3 DAT: 3 days after spraying; for Average damage % 7 DAT: 7 days after spraying; for Average damage % 14 DAT: 14 days after spraying; for Average damage % 21 DAT: 21 days after spraying", "from_the_text": "(§3) The herbicide tolerance effects of Gm cytoplasmic ALT-1-01 soybean plants, Gm chloroplastic ALT-1-01 soybean plants, Gm cytoplasmic ALT-2-01 soybean plants, Gm chloroplastic ALT-2-01 soybean plants, Gm cytoplasmic ALT-3-01 soybean plants, Gm chloroplastic ALT-3-01 soybean plants and wild-type soybean plants on halosulfuron-methyl were detected (at seedling stage), respectively.\n(§4) Gm cytoplasmic ALT-1-01 soybean plants, Gm chloroplastic ALT-1-01 soybean plants, Gm cytoplasmic ALT-2-01 soybean plants, Gm chloroplastic ALT-2-01 soybean plants, Gm cytoplasmic ALT-3-01 soybean plants, Gm chloroplastic ALT-3-01 soybean plants and wild-type soybean plants were respectively taken and sprayed with halosulfuron-methyl (34 g ai/ha, 1-fold field concentration) and a blank solvent (water). The damage degree caused by the herbicide was measured for each plant according to the leaf curl degree and the growth point damage degree 3 days after spraying (3 DAT), 7 days after spraying (7 DAT), 14 days after spraying (14 DAT) and 21 days after spraying (21 DAT), respectively: considering conditions of leaves being flat as the untreated plants and growth points being intact as having a damage degree of 0%; considering conditions of veins being locally browned, new leaves being malformed and plant growth being slow as having a damage degree of 50%; and considering conditions of veins being purple to whole plant being dead and growth points being browned and dry as having a damage degree of 100%. There were 2 strains in Gm cytoplasmic ALT-1-01 soybean plants in total (S1 and S2), 2 strains in Gm chloroplastic ALT-1-01 soybean plants in total (S3 and S4), 2 strains in Gm cytoplasmic ALT-2-01 soybean plants in total (S5 and S6), 2 strains in Gm chloroplastic ALT-2-01 soybean plants in total (S7 and S8), 2 strains in Gm cytoplasmic ALT-3-01 soybean plants in total (S9 and S10), 2 strains in Gm chloroplastic ALT-3-01 soybean plants in total (S11 and S12), and 1 strain in wild-type soybean plants (CK1) in total; and 10-15 plants were selected from each strain and tested."}, "[7]": {"tested_on": "Gm chloroplastic ALT-2-01 soybean plants", "assay": "Halosulfuron-methyl tolerance of soybean plants (damage degree)", "conditions": "34 g ai/ha (1x Hal.); for Average damage % 3 DAT: 3 days after spraying; for Average damage % 7 DAT: 7 days after spraying; for Average damage % 14 DAT: 14 days after spraying; for Average damage % 21 DAT: 21 days after spraying", "from_the_text": "as §3, §4"}}, "data": [{"molecule": "COC(=O)c1c(Cl)nn(C)c1S(=O)(=O)NC(=O)Nc1nc(OC)cc(OC)n1", "note": "[halosulfuron-methyl, 3-chlorine-5-(4,6-dimethoxypyrimidine-2-aminocarbonylaminosulphonyl)-1-methylpyrazole-4-carboxylic acid methyl ester]", "values": [{"measurement": "Moderately resistant", "setting": "[1]", "result": 6}, {"measurement": "Non-resistant", "setting": "[1]", "result": 15}, {"measurement": "Poorly resistant", "setting": "[1]", "result": 5}, {"measurement": "Highly resistant", "setting": "[2]", "result": 1}, {"measurement": "Moderately resistant", "setting": "[2]", "result": 6}, {"measurement": "Non-resistant", "setting": "[2]", "result": 5}, {"measurement": "Poorly resistant", "setting": "[2]", "result": 4}, {"measurement": "Highly resistant", "setting": "[3]", "result": 1}, {"measurement": "Moderately resistant", "setting": "[3]", "result": 4}, {"measurement": "Non-resistant", "setting": "[3]", "result": 5}, {"measurement": "Poorly resistant", "setting": "[3]", "result": 7}, {"measurement": "Highly resistant", "setting": "[4]", "result": 1}, {"measurement": "Moderately resistant", "setting": "[4]", "result": 6}, {"measurement": "Non-resistant", "setting": "[4]", "result": 5}, {"measurement": "Poorly resistant", "setting": "[4]", "result": 5}, {"measurement": "Highly resistant", "setting": "[5]", "result": 1}, {"measurement": "Moderately resistant", "setting": "[5]", "result": 2}, {"measurement": "Non-resistant", "setting": "[5]", "result": 7}, {"measurement": "Poorly resistant", "setting": "[5]", "result": 5}, {"measurement": "Average damage % 3 DAT", "setting": "[6]; strain S1", "result": 13, "unit": "%"}, {"measurement": "Average damage % 7 DAT", "setting": "[6]; strain S1", "result": 7, "unit": "%"}, {"measurement": "Average damage % 14 DAT", "setting": "[6]; strain S1", "result": 0, "unit": "%"}, {"measurement": "Average damage % 21 DAT", "setting": "[6]; strain S1", "result": 0, "unit": "%"}, {"measurement": "Average damage % 3 DAT", "setting": "[6]; strain S2", "result": 12, "unit": "%"}, {"measurement": "Average damage % 7 DAT", "setting": "[6]; strain S2", "result": 6, "unit": "%"}, {"measurement": "Average damage % 14 DAT", "setting": "[6]; strain S2", "result": 0, "unit": "%"}, {"measurement": "Average damage % 21 DAT", "setting": "[6]; strain S2", "result": 0, "unit": "%"}, {"measurement": "Average damage % 3 DAT", "setting": "[7]; strain S7", "result": 10, "unit": "%"}, {"measurement": "Average damage % 7 DAT", "setting": "[7]; strain S7", "result": 4, "unit": "%"}, {"measurement": "Average damage % 14 DAT", "setting": "[7]; strain S7", "result": 0, "unit": "%"}, {"measurement": "Average damage % 21 DAT", "setting": "[7]; strain S7", "result": 0, "unit": "%"}, {"measurement": "Average damage % 3 DAT", "setting": "[7]; strain S8", "result": 9, "unit": "%"}, {"measurement": "Average damage % 7 DAT", "setting": "[7]; strain S8", "result": 5, "unit": "%"}, {"measurement": "Average damage % 14 DAT", "setting": "[7]; strain S8", "result": 0, "unit": "%"}, {"measurement": "Average damage % 21 DAT", "setting": "[7]; strain S8", "result": 0, "unit": "%"}]}]}
